Results published in ChEMBL document CHEMBL1123536, “Studies on Ca2+ channel antagonists. 5-[(3,4-Dimethoxyphenethyl)methylamino]-2-(3,4-dimethoxyphenyl)-2- isopropylpentyl isothiocyanate, a chemoaffinity ligand derived from verapamil” (J Med Chem, 1986).

Legend:
[1] = species on record: Rattus norvegicus; assay: Compound was evaluated for the concentration dependent negative ionotropic effect in rat right myocardial ventricular strips; assay type: functional; conditions: Cardiac ventricle
[2] = species on record: Rattus norvegicus; assay: Compound was evaluated for the displacement of [3H]gallopamil from specific binding sites on rat myocardial membrane particulates; conditions: Myocardium

| EC50 [1] [µM] | IC50 [2] [µM] | SMILES |
| --- | --- | --- |
| 4.56 | 0.342 | COc1ccc(CCN(C)CCCC(CN=C=S)(c2ccc(OC)c(OC)c2)C(C)C)cc1OC (stereo unspecified) |
| 1.95 | 0.016 | COc1ccc(CCN(C)CCCC(C#N)(c2cc(OC)c(OC)c(OC)c2)C(C)C)cc1OC (stereo unspecified) [GALLOPAMIL] |
| 2.51 | 0.362 | COc1ccc(CCN(C)CCCC(C#N)(c2ccc(OC)c(OC)c2)C(C)C)cc1OC (stereo unspecified) [VERAPAMIL] |
